Structures can show the parent of a compound that is named as a salt. Where two headings read alike, the source gives them in different places. Bounds are passed on as bounds.

The conditions of series [1]: cited from earlier work.
Series [2] has as its system lysosomal uptake. The settings on record: at 10µM (Smieszek et al., 2020); cited from earlier work.
The target of series [3] is binding of the viral spike protein to ACE2 (UniProt P0DTC2+Q9BYF1). As to conditions: Fink et al. in prep; cited from earlier work.
binding of the viral spike protein to ACE2, sequence (Q9BYF1 18-805, one chain of several): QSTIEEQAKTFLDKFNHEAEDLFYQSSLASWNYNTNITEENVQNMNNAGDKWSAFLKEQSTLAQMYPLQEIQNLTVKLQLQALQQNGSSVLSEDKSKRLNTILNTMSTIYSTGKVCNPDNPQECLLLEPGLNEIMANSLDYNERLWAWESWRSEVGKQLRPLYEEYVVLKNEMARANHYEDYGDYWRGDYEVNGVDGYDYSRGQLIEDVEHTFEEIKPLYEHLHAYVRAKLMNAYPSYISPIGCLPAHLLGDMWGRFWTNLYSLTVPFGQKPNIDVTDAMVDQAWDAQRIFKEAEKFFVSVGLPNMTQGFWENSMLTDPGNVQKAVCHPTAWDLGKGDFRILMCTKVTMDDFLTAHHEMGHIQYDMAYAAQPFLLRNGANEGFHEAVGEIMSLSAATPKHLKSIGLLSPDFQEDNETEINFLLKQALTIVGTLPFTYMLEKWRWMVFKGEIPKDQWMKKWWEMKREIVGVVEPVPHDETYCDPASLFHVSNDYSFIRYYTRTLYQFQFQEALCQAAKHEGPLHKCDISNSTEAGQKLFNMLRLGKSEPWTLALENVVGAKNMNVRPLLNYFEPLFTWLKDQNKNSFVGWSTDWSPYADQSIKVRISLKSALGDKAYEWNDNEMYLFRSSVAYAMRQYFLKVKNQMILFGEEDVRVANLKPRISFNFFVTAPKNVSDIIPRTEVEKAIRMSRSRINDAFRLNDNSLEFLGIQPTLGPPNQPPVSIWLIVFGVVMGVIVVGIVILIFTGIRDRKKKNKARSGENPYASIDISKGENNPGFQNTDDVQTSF
The test system of series [4] is influenza A. As to conditions: inhalation, cited from earlier work.
In series [5] the test system is influenza A. The settings on record: inhaled at 6mg/kg/d (Fenton et al., 1977); cited from earlier work.
For series [6], the system named is influenza A. The settings on record: 20 influenza A patients; inhalative 1%, 20mg/d, 3x20min, 4d (Hayden et al., 1980); cited from earlier work.
The conditions of series [7]: cited from earlier work. The source holds these as a separate data set.
For series [8] the following is noted: 7 volunteers and 3 influenza patients; 1.5%, up to 9h, 2x6h, 10-11h in 3d (Knight et al., 1979); cited from earlier work.
Series [9] concerns SARS-CoV-2 (viral strain INMI1). In words: Antiviral activity assay with nucleoprotein readout (ELISA) in infected Vero E6 cells. Format: cell-based. As to conditions: Severe acute respiratory syndrome coronavirus 2, Vero C1008, 72 h, read-out: IC50, SARS-CoV-2 replication (virus nucleoprotein in % of infected untreated control). The method, then:
The cell line is routinely maintained in DMEM supplemented with 1% glutamine, 1% penicillin/streptomycin and 10% fetal bovine serum and can be infected with SARS-CoV-2 (Ogando et al., 2020).
Exponentially growing Vero E6 cells were seeded into a 96-well plate at their optimal density in complete medium. […] Drug dilutions were performed in culture medium. Replicates for each concentration point were examined. At the end of the incubation period, antiviral activity was examined through both ELISA (Sino Biological, quantifying SARS-CoV-2 nucleoprotein) as well as a cytoprotection assay (toxicity effect examined through an inverted microscope). An inhibitory concentration 50% (IC50) value was calculated through interpolation of the dose-response curves generated.
The nucleoprotein was quantified by ELISA. Results are means ± SD of 2-4 experiments.
Background: ELISA stands for enzyme-linked immunosorbent assay.

Series [10] concerns SARS-CoV-2. As to the kind of experiment: Treatment of a SARS-CoV-2 positive patient with nebulized amantadine hemisulfate (Example 2). As to conditions: 0.4mg/ml inhaled every 2 h for 30min 6 times per day, 7 days. Format: in vivo. An excerpt:
A patient who had contact 2 days ago with a colleague who turned out to be SARS-CoV-2 positive the day after the meeting, consults their primary care physician. […] The RT-PCR test for SARS-CoV-2 of a nasal swab is also positive; HR is 78/min, BP is 120/80mmHg, BR is 15/min, peripheral O2 saturation is 97%, no further health issues are diagnosed. The patient is diagnosed with Covid-19 and isolated in home quarantine with daily doctor calls to evaluate their health status. […] The treatment is continued for 7 days. […] They recover within 14 days after treatment start.

Consider `NC12CC3CC(CC(C3)C1)C2` [amantadine, 1-Adamantylamine], for which, in [1] (healthy human volunteers, inhalation (Hayden et al., 1979)), the “plasma concentration after inhalative administration” value was 0.13 µM. The plasma concentrations entry in [1] (patients receiving regularly 600 mg orally per day (Brenner et al., 1989)) is reported as “up to 14.6 µM”. Also, in [2], the reduced lysosomal uptake was 50%. Moreover, the “Interference with the binding of the viral spike protein to ACE2 on target cells” value in series [3] is reported as “can be ruled out”. For the same molecule, the virus load entry in [4] (40 mg/d retained dose (Wilson et al., 1980)) was “reduced virus load”. Also, in series [4] (22h/day, 4mg/d retained dose (Walker et al., 1976)), the effect on survival result is “positive effect on survival”. Moreover, in series [5], the virus load entry is recorded as “reduced virus load”. In addition, in series [6], the symptoms result was “improved symptoms” and the virus load result was “reduced virus load”. Further, the “serum concentrations in intoxication case” value in series [7] (human, in vivo) is listed as 15.9 µM. In [7] (patients, plasma), the “plasma concentration at which aggressive behaviour was observed” value is 5.5 to 6.6 µM; the “plasma concentration at which depression and confusion were observed” value is 19.9 µM; the “plasma concentration at which seizures were observed” value is 13.2 µM. Besides, the “safety of inhalative administration” value in series [8] was “safe and irritation-free”.

What is called IC50 is the point on the concentration scale where inhibition reaches its midpoint. As to `NC12CC3CC(CC(C3)C1)C2` [amantadine hydrochloride], the IC50 in series [9] is 88 µM.

For the molecule amantadine hemisulfate, in series [10], the “breathing problems during treatment” value is “does not suffer from breathing problems”, the fever during treatment entry is reported as “transiently minor fever” and the “time to recovery after treatment start” value was at most 14 days.

The values above are taken from patent publication EP4005565A1 (priority 2020, dated 2022).
